Like-named read-outs stand apart in the source and are kept apart here.
Tests used:
Assay type in all cases: biochemical
[1] = target: T1, CYP3A4 (Homo sapiens, UniProt P08684); test: Determination of compound Kiapp against recombinant CYP3A4 enzyme (BFC fluorescent substrate)
Summary of the method: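 Kiapp derived from initial velocities over the first 5 min of BFC (5 uM) oxidation, using Morrison's tight-binding equation for non-partial and Szedlacsek's for partial inhibitors. Inhibitor first pre-incubated ≥30 min with CYP3A4 (5.5 or 8 nM, ±b5) in pH 7.0 phosphate/TCEP/2% DMF at room temperature; 200 uM NADPH initiated.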

[2] = target: T1, CYP3A4; test: Determination of IC50 against CYP3A4 by measurement of inhibition of testosterone metabolism (human liver microsomes, 6-β-OH-testosterone by LC-MS/MS); design: 0.1 mg/mL human liver microsomes; details: read-out: IC50 (Testo.)
Summary of the method: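 6-β-OH-testosterone formation was read by LC-MS/MS (MRM, internal standard, standard curve) after eight minutes. Reaction contained testosterone 25 μM, NADPH 1 mM and microsomal protein 0.1 mg/mL in pH 7.4 potassium phosphate (100 mM).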

[3] = target: T1, CYP3A4; test: Determination of IC50 against CYP3A4 by measurement of inhibition of midazolam metabolism (human liver microsomes, 1-hydroxymidazolam by LC-MS/MS); design: 0.1 mg/mL human liver microsomes; details: 2 μM midazolam, 0.1 mg/mL human liver microsomes
Summary of the method: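 Human liver microsomes (0.1 mg/mL) incubated 8 min with 2 μM midazolam and 1 mM NADPH in 100 mM potassium phosphate, pH 7.4. 1-Hydroxymidazolam quantified by LC-MS/MS (MRM) as peak area ratio to internal standard against a metabolite standard curve.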

[4] = Baculo. enzyme preparation, read-out: Kiapp (BFC, Baculo.)
[5] = Super. enzyme preparation, read-out: Kiapp (BFC, Super.)

T1 sequence (P08684 whole entry): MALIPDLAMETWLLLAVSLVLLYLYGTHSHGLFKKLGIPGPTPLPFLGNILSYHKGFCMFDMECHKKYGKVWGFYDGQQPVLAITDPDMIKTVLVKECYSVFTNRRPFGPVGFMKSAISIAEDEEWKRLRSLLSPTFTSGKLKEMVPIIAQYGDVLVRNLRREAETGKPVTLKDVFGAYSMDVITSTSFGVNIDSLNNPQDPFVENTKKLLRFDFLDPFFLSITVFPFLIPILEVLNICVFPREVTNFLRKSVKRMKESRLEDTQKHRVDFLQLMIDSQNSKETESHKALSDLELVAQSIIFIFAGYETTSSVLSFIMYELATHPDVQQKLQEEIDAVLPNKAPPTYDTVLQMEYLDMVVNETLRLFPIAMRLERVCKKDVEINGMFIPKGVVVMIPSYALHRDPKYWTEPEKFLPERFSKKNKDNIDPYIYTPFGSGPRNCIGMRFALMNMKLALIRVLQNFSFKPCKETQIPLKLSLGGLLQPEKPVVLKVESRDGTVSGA

| Ki [1, 4] [nM] | Ki [1, 5] [nM] | IC50 [2] [nM] | IC50 [3] [nM] | SMILES |
| --- | --- | --- | --- | --- |
| 123 | 30.4 | 43 | 32 | CN(c1cccnc1)S(=O)(=O)c1ccccc1C(=O)NCc1cccc(F)c1 [Example 357, N-(3-fluorobenzyl)-2-{[methyl(pyridin-3-yl)amino]sulfonyl}benzamide] |
| 592 | 137 | 100 | 68 | CC1CC(C)CN(C(=O)c2ccccc2S(=O)(=O)N(C)c2cccnc2)C1 (stereo not shown) [Example 358, 2-[(3,5-dimethylpiperidin-1-yl)carbonyl]-N-methyl-N-pyridin-3-ylbenzenesulfonamide] |
| 593 | 140 | 260 | 101 | CN(c1cccnc1)S(=O)(=O)c1ccccc1C(=O)NCC(C)(C)C [Example 359, N-(2,2-dimethylpropyl)-2-{[methyl(pyridin-3-yl)amino]sulfonyl}benzamide] |
| 80.8 | 21.8 | 43 | 25 | CCCCCNC(=O)c1ccccc1S(=O)(=O)Nc1cncc(C)c1 [Example 360, 2-{[(5-methylpyridin-3-yl)amino]sulfonyl}-N-pentylbenzamide] |
| 274 | 41.4 | 40 | 16 | COc1ccc(CNC(=O)c2ccccc2S(=O)(=O)Nc2cncc(C)c2)cc1 [Example 361, N-(4-methoxybenzyl)-2-{[(5-methylpyridin-3-yl)amino]sulfonyl}benzamide] |
| 94.4 | 22.9 | 44 | 26 | Cc1cncc(NS(=O)(=O)c2ccccc2C(=O)NCCC(C)C)c1 [Example 362, N-(3-methylbutyl)-2-{[(5-methylpyridin-3-yl)amino]sulfonyl}benzamide] |
| 169 | 36.4 | 76 | 37 | Cc1cncc(NS(=O)(=O)c2ccccc2C(=O)N2CCC(C)CC2)c1 [Example 363, 2-[(4-methylpiperidin-1-yl)carbonyl]-N-(5-methylpyridin-3-yl)benzenesulfonamide] |
| 86.8 | 23.4 | 49 | 33 | CCCCCNC(=O)c1ccccc1S(=O)(=O)N(C)c1cncc(OC)c1 [Example 364, 2-{[(5-methoxypyridin-3-yl)(methyl)amino]sulfonyl}-N-pentylbenzamide] |
| > 1000 | 515 | > 750 | > 750 | COc1cncc(NS(=O)(=O)c2ccccc2C(=O)N2CCC(O)CC2)c1 [Example 365, 2-[(4-hydroxypiperidin-1-yl)carbonyl]-N-(5-methoxypyridin-3-yl)benzenesulfonamide] |
| 553 | 65.1 | > 750 | 253 | COc1cncc(NS(=O)(=O)c2ccccc2C(=O)N2CCC(OC)CC2)c1 [Example 366, 2-[(4-methoxypiperidin-1-yl)carbonyl]-N-(5-methoxypyridin-3-yl)benzenesulfonamide] |
| 570 | 148 | > 750 | 317 | COc1cncc(NS(=O)(=O)c2ccccc2C(=O)N2CCOCC2)c1 [Example 367, N-(5-methoxypyridin-3-yl)-2-(morpholin-4-ylcarbonyl)benzenesulfonamide] |
| 7.6 | 1.1 | 18 | 6 | COc1cncc(NS(=O)(=O)c2ccccc2C(=O)NCc2ccc(F)c(F)c2)c1 [Example 368, N-(3,4-difluorobenzyl)-2-{[(5-methoxypyridin-3-yl)amino]sulfonyl}benzamide] |
| 350 | 53.2 | 181 | 98 | COc1cncc(NS(=O)(=O)c2ccccc2C(=O)N2CCCC2)c1 [Example 369, N-(5-methoxypyridin-3-yl)-2-(pyrrolidin-1-ylcarbonyl)benzenesulfonamide] |
| 52.9 | 19 | 8 | 12 | COc1cncc(NS(=O)(=O)c2ccccc2C(=O)N(C)CCc2ccccc2)c1 [Example 370, 2-{[(5-methoxypyridin-3-yl)amino]sulfonyl}-N-methyl-N-(2-phenylethyl)benzamide] |
| 248 | 58.8 | 10 | 5 | CC(C)CCN(C)C(=O)c1ccccc1S(=O)(=O)Nc1cccnc1 [Example 371, N-methyl-N-(3-methylbutyl)-2-[(pyridin-3-ylamino)sulfonyl]benzamide] |
| 79 | 18 | 23 | 15 | COc1cncc(NS(=O)(=O)c2ccccc2C(=O)N(C)Cc2ccccc2)c1 [Example 372, N-benzyl-2-{[(5-methoxypyridin-3-yl)amino]sulfonyl}-N-methylbenzamide] |

| Ki [1, 4] [nM] | Ki [1, 5] [nM] | IC50 [2] [nM] | IC50 [3] [nM] | SMILES |
| --- | --- | --- | --- | --- |
| 221 | 45 | 49 | 37 | COc1ccc(CNC(=O)c2ccccc2S(=O)(=O)Nc2cncc(OC)c2)cc1 [Example 373, N-(4-methoxybenzyl)-2-{[(5-methoxypyridin-3-yl)amino]sulfonyl}benzamide] |
| 483 | 74.5 | 79 | 29 | COc1cncc(NS(=O)(=O)c2ccccc2C(=O)NC(C)(C)C)c1 [Example 374, N-(tert-butyl)-2-{[(5-methoxypyridin-3-yl)amino]sulfonyl}benzamide] |
| 142 | 31.6 | 42 | 22 | COc1cncc(NS(=O)(=O)c2ccccc2C(=O)NCC2CCCC2)c1 [Example 375, N-(cyclopentylmethyl)-2-{[(5-methoxypyridin-3-yl)amino]sulfonyl}benzamide] |
| 117 | 73 | 43 | 27 | CCCCN(C)C(=O)c1ccccc1S(=O)(=O)Nc1cccnc1 [Example 376, N-butyl-N-methyl-2-[(pyridin-3-ylamino)sulfonyl]benzamide] |
| 76.3 | 17.6 | 33 | 21 | CCCCCNC(=O)c1ccccc1S(=O)(=O)Nc1cncc(OC)c1 [Example 377, 2-{[(5-methoxypyridin-3-yl)amino]sulfonyl}-N-pentylbenzamide] |
| 78 | 18.7 | 14 | 13 | COc1cncc(NS(=O)(=O)c2ccccc2C(=O)NCc2ccccc2F)c1 [Example 378, N-(2-fluorobenzyl)-2-{[(5-methoxypyridin-3-yl)amino]sulfonyl}benzamide] |
| 120 | 24.6 | 7 | 8 | COc1cncc(NS(=O)(=O)c2ccccc2C(=O)NCCC(C)C)c1 [Example 379, 2-{[(5-methoxypyridin-3-yl)amino]sulfonyl}-N-(3-methylbutyl)benzamide] |
| 215 | 60.7 | 29 | 21 | COc1cncc(NS(=O)(=O)c2ccccc2C(=O)NCC(C)(C)C)c1 [Example 380, N-(2,2-dimethylpropyl)-2-{[(5-methoxypyridin-3-yl)amino]sulfonyl}benzamide] |
| 52 | 2.79 | 64 | 30 | COc1cncc(NS(=O)(=O)c2ccccc2C(=O)NC(C)(C)c2ccccc2)c1 [Example 381, 2-{[(5-methoxypyridin-3-yl)amino]sulfonyl}-N-(1-methyl-1-phenylethyl)benzamide] |
| 505 | 20.1 | 263 | 68 | COC[C@H](C)NC(=O)c1ccccc1S(=O)(=O)Nc1cncc(OC)c1 [Example 382, N-[(1S)-2-methoxy-1-methylethyl]-2-{[(5-methoxypyridin-3-yl)amino]sulfonyl}benzamide] |
| 912 | 31 | 348 | 67 | COc1cncc(NS(=O)(=O)c2ccccc2C(=O)NCCc2ccncc2)c1 [Example 383, 2-{[(5-methoxypyridin-3-yl)amino]sulfonyl}-N-(2-pyridin-4-ylethyl)benzamide] |
| 560 | 19.2 | 178 | 43 | COc1cncc(NS(=O)(=O)c2ccccc2C(=O)NCCc2cccnc2)c1 [Example 384, 2-{[(5-methoxypyridin-3-yl)amino]sulfonyl}-N-(2-pyridin-3-ylethyl)benzamide] |
| > 1000 | 216 | > 750 | > 750 | COc1cncc(NS(=O)(=O)c2ccccc2C(=O)NCCN2CCCCC2)c1 [Example 385, 2-{[(5-methoxypyridin-3-yl)amino]sulfonyl}N-(2-piperidin-1-ylethyl)benzamide] |
| > 1000 | 174 | > 750 | > 750 | COc1cncc(NS(=O)(=O)c2ccccc2C(=O)NCCN2CCCC2)c1 [Example 386, 2-{[(5-methoxypyridin-3-yl)amino]sulfonyl}-N-(2-pyrrolidin-1-ylethyl)benzamide] |
| > 1000 | 224 | > 750 | > 750 | COc1cncc(NS(=O)(=O)c2ccccc2C(=O)NCCC2CCCN2C)c1 (stereo not shown) [Example 387, 2-{[(5-methoxypyridin-3-yl)amino]sulfonyl}N[2-(1-methylpyrrolidin-2-yl)ethyl]benzamide] |

— patent US7868026B2, “Therapeutic compounds” (Pfizer Inc., priority 2005, dated 2011)
